The structures appear in SMILES notation. Where “and” joins values, the source holds several entries; their conditions need not be identical. Identical values can stand only once.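 Grown in 96-well plates, cells were treated for 48 hours with each compound at five concentrations. Insufficient inhibition: endpoint recorded as highest concentration tested. GI50: concentration for 50% inhibition of growth. TGI marks complete inhibition of growth.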

Test systems include ACHN renal; HCT-15 colon; SK-MEL-28 melanoma; EKVX NSCLC; OVCAR-8 ovarian; SF-268 CNS; MCF7 breast; HS 578T breast; SK-MEL-5 melanoma; SK-MEL-2 melanoma.
Assay in all cases: NCI anticancer screen, dose series, 48 h

`C=C1C(=O)O[C@H]2[C@H]1CC/C(COC(=O)NCCCCCCCCNC(=O)OC/C1=C/CC[C@@]3(C)O[C@H]3[C@H]3OC(=O)C(=C)[C@@H]3CC1)=C\CC[C@@]1(C)O[C@@H]21`: the GI50 with ACHN renal was 0.258 µM; with HCT-15 colon it was 0.346 µM; in the experiment on SK-MEL-28 melanoma it was 0.206 µM; in the experiment on EKVX NSCLC, 1.19 µM; in the experiment on OVCAR-8 ovarian, 0.326 µM; in the experiment with SF-268 CNS, 0.999 µM. Moreover, the GI50 in the experiment with MCF7 breast was 0.221 µM; in the experiment with HS 578T breast it was 1.17 µM; in the experiment on SK-MEL-5 melanoma it was 1.21 µM; in the experiment on SK-MEL-2 melanoma, 0.601 µM. In addition, the TGI in the experiment with ACHN renal amounted to 0.662 µM; in the experiment on HCT-15 colon it was 1.41 µM; in the experiment with SK-MEL-28 melanoma, 0.511 µM; with EKVX NSCLC, 2.44 µM; in the experiment with OVCAR-8 ovarian, 1.24 µM; with SF-268 CNS, 2.69 µM. Besides, the TGI in the experiment on MCF7 breast is 0.833 µM; with HS 578T breast it was 8.23 µM; in the experiment with SK-MEL-5 melanoma, 2.59 µM; in the experiment with SK-MEL-2 melanoma, 2.8 µM.
`Cc1cc(=O)oc2cc(OC/C=C3\CCC(=O)O3)ccc12`: the GI50 in the experiment with ACHN renal is 5.05 µM; in the experiment with HCT-15 colon, 10.6 µM; with SK-MEL-28 melanoma it was 16.4 µM; in the experiment on EKVX NSCLC, 21 µM; in the experiment with OVCAR-8 ovarian, 23.5 µM; with SF-268 CNS, 15.3 µM. Further, the GI50 was 5.73 µM in the experiment with MCF7 breast, 22.9 µM in the experiment on HS 578T breast, 17.6 µM with SK-MEL-5 melanoma and 17.9 µM in the experiment with SK-MEL-2 melanoma. For the same molecule, the TGI was 15.4 µM with ACHN renal; 23.9 µM in the experiment with HCT-15 colon; 33.6 µM in the experiment with SK-MEL-28 melanoma; 54.4 µM in the experiment on EKVX NSCLC; more than 74.5 µM in the experiment on OVCAR-8 ovarian; 50.2 µM in the experiment with SF-268 CNS. Moreover, the TGI with MCF7 breast was 27.6 µM; in the experiment with HS 578T breast it was more than 87.4 µM; in the experiment on SK-MEL-5 melanoma it was 37 µM; in the experiment with SK-MEL-2 melanoma, 60.2 µM.
Take `COc1ccc2c(c1)C(=O)c1c-2c(Nc2cccc(C(C)=O)c2)nc2ccccc12`: the GI50 is 4.21 µM with ACHN renal; 24 µM in the experiment on HCT-15 colon; 15.1 µM in the experiment with SK-MEL-28 melanoma; 12.5 µM in the experiment with EKVX NSCLC; 14.5 µM in the experiment on OVCAR-8 ovarian; 36.5 µM in the experiment with SF-268 CNS. In addition, the GI50 in the experiment on MCF7 breast was 24 µM; with HS 578T breast, 3.19 µM; in the experiment on SK-MEL-5 melanoma, 5.22 µM; with SK-MEL-2 melanoma, 16.4 µM. The TGI with ACHN renal was 14.9 µM; with HCT-15 colon it was more than 100 µM; in the experiment on SK-MEL-28 melanoma, 64.6 µM; with EKVX NSCLC, 32.1 µM; in the experiment with OVCAR-8 ovarian, 34.7 µM; with SF-268 CNS it was more than 100 µM. The TGI is more than 100 µM in the experiment with MCF7 breast, 15.5 µM in the experiment with HS 578T breast, 18.9 µM in the experiment on SK-MEL-5 melanoma and 53.5 µM with SK-MEL-2 melanoma.
As to `O=C1C=CC2(C=C1)C[C@H](NC(=O)OCc1ccccc1)C(=O)O2`, the TGI turned out to be 29.5 µM in the experiment on ACHN renal; 27 µM with HCT-15 colon; 27 µM in the experiment on SK-MEL-28 melanoma; 23.7 µM in the experiment on EKVX NSCLC; 31.4 µM in the experiment with OVCAR-8 ovarian; 32.3 µM in the experiment with SF-268 CNS. The TGI with MCF7 breast was 25.1 µM; in the experiment with HS 578T breast it was more than 100 µM; in the experiment on SK-MEL-5 melanoma it was 47.9 µM; in the experiment on SK-MEL-2 melanoma it was 40 µM.
Regarding `Cc1ccc(S(=O)(=O)Nc2ccc(-c3cc(-c4cccc(F)c4)c(C#N)c(N)n3)cc2)cc1`, the GI50 was 1.58 µM in the experiment with ACHN renal; 1.88 µM in the experiment on HCT-15 colon; 1.96 µM with SK-MEL-28 melanoma; 2.17 µM in the experiment on EKVX NSCLC; 2.43 µM in the experiment with OVCAR-8 ovarian; 2.97 µM with SF-268 CNS. For the same molecule, the GI50 in the experiment on MCF7 breast was 2.32 µM; with HS 578T breast it was 2.28 µM; in the experiment with SK-MEL-5 melanoma, 1.77 µM; in the experiment on SK-MEL-2 melanoma it was 1.96 µM. Also, the TGI in the experiment with ACHN renal worked out at 2.92 µM; in the experiment with HCT-15 colon it was 4.86 µM; in the experiment with SK-MEL-28 melanoma it was 4.08 µM; in the experiment with EKVX NSCLC, 6.32 µM; in the experiment with OVCAR-8 ovarian, 7.83 µM; with SF-268 CNS, 12.8 µM. The TGI in the experiment on MCF7 breast worked out at 10 µM; in the experiment with HS 578T breast, 7.48 µM; in the experiment on SK-MEL-5 melanoma it was 3.23 µM; in the experiment with SK-MEL-2 melanoma it was 4.22 µM.
As to `COc1ccc(OC)c(/C=C/c2nc(SCc3ccccc3)n(-c3ccc(Cl)cc3)n2)c1`, the GI50 in the experiment on ACHN renal was 23.2 µM; in the experiment with HCT-15 colon it was 5.01 µM; with SK-MEL-28 melanoma, 28.5 µM; in the experiment on EKVX NSCLC it was 9.89 µM; in the experiment on OVCAR-8 ovarian, 9.36 µM; in the experiment on SF-268 CNS it was 8.39 µM. Besides, the GI50 is 4.78 µM in the experiment on MCF7 breast, 5.23 µM in the experiment with HS 578T breast, 4.75 µM in the experiment with SK-MEL-5 melanoma and 6.38 µM with SK-MEL-2 melanoma. Also, the TGI with ACHN renal, with HCT-15 colon, with SK-MEL-28 melanoma, in the experiment with EKVX NSCLC, in the experiment on OVCAR-8 ovarian and in the experiment on SF-268 CNS was more than 100 µM throughout. For the same molecule, the TGI is more than 100 µM in the experiment on MCF7 breast, more than 100 µM with HS 578T breast, 21.9 µM in the experiment on SK-MEL-5 melanoma and more than 100 µM with SK-MEL-2 melanoma.
As for `COCCn1cc(-c2csc(-c3c[nH]c4ccc(Br)cc34)n2)c2cccnc21`, the GI50 in the experiment with ACHN renal was 3.04 µM; with HCT-15 colon, 3.14 µM; in the experiment on SK-MEL-28 melanoma, 4.79 µM; in the experiment on EKVX NSCLC, 2.05 µM; in the experiment with OVCAR-8 ovarian, 5.35 µM; in the experiment on MCF7 breast, 1.79 µM. Also, the GI50 is 4.44 µM in the experiment on HS 578T breast, 3.24 µM in the experiment on SK-MEL-5 melanoma and 6.82 µM in the experiment on SK-MEL-2 melanoma. The TGI in the experiment on ACHN renal, with HCT-15 colon, with SK-MEL-28 melanoma, with EKVX NSCLC, with OVCAR-8 ovarian and with MCF7 breast was more than 100 µM throughout. The TGI was 43 µM with HS 578T breast, 11.7 µM with SK-MEL-5 melanoma and 67.6 µM with SK-MEL-2 melanoma.
On to `COc1cccc2c1C(=O)c1c(O)c3c(c(O)c1C2=O)CC(O)(C(=O)CO)CC3OC1CC(N)C(O)C(C)O1` (stereo not drawn), for which the GI50 with ACHN renal is 20.2 µg/mL and 12.2 µg/mL; in the experiment with HCT-15 colon, 75 µg/mL and > 150 µg/mL; in the experiment on SK-MEL-28 melanoma, 33.8 µg/mL and 44.8 µg/mL; in the experiment on EKVX NSCLC it was 75 µg/mL; with OVCAR-8 ovarian, 19.5 µg/mL and 45.7 µg/mL; with SF-268 CNS, 7.5 µg/mL. Besides, the GI50 was 2.76 µg/mL and 10.7 µg/mL in the experiment with MCF7 breast; 33.8 µg/mL with HS 578T breast; 4.76 µg/mL and 15.7 µg/mL with SK-MEL-5 melanoma; 24.1 µg/mL and 44.3 µg/mL in the experiment on SK-MEL-2 melanoma. Moreover, the TGI with ACHN renal was 75 µg/mL and > 150 µg/mL; in the experiment on HCT-15 colon it was 75 µg/mL and > 150 µg/mL; with SK-MEL-28 melanoma, 75 µg/mL and > 150 µg/mL; in the experiment on EKVX NSCLC, 75 µg/mL; in the experiment on OVCAR-8 ovarian it was 75 µg/mL and > 150 µg/mL; in the experiment on SF-268 CNS it was 75 µg/mL. For the same molecule, the TGI was 75 µg/mL and > 150 µg/mL with MCF7 breast; 75 µg/mL with HS 578T breast; 23.4 µg/mL and 44.8 µg/mL in the experiment on SK-MEL-5 melanoma; 75 µg/mL and 138 µg/mL in the experiment on SK-MEL-2 melanoma.
